Laboratory results published in US20040077689A1, “Abc expression promoters” (priority 2001, published 2004).
Counter-ions that a name gives are not always drawn.

How the values were obtained:
Assay type in all cases: cell-based
CEH mRNA = assay: Expression modulatory activity for CEH mRNA in human monocyte-derived cells; details: THP-1 cells, test compound 1 μM, 2 days + 1 day; Not added = 100.0; Mean ± SEM (n = 3)
Method: (§1) In a RPMI medium containing a test compound (1 μM), PMA (phorbol 12-myristate 13-acetate, 400 ng/mL)-FBS (fetal bovine serum, 10%) was suspended human monocyte-derived THP-1 cells (purchased from Dainippon Pharmaceutical Co., Ltd.) (7.2×10^5 cell/mL). The obtained suspension was dispensed into a 24 well plate (0.5 mL/well) and cultured for 2 days (3.6×10^5 cells). After the medium was removed, a RPMI medium containing the test compound (1 μM), PMA(400 ng/mL)-FBS(10%) was added to the plate and it was cultured further for 1 day.
(§2) After the medium was removed, whole RNA was extracted from the obtained cells using RN easy Mini Kit (QIAGEN), and the expression amounts of ACAT-1 mRNA, CEH mRNA and human acidic ribosomal protein (huPO; 36B4) mRNA as an internal standard were measured by real-time quantitative RT-PCR according to TaqMan PCR method using a TaqMan EZ RT-PCR kit (Applied Biosystems).
Furthermore, for the measurement of the expression amount of the CEH mRNA, oligo DNAs represented by
5′-AGCCCTTGGCTGAGCAAA-3′ (SEQ ID NO: 22),
5′-GTCGCAGGCAGTGAACCAT-3′ (SEQ ID NO: 23) and
5′-[…]-3′ (SEQ ID NO: 24) […]
(§3) The expression amount of human acidic ribosomal protein (huPO; 36B4) mRNA was measured according to the method similar to Experimental Example 1. Real-time quantitative RT-PCR was carried out similarly to Experimental Example 1. […]

ABCG1 mRNA [1] = assay: Expression modulatory activity for ABCG1 mRNA in human monocyte-derived cells; details: THP-1 cells, test compound 1 μM, 24 hours; Not added = 100.0; Mean ± SEM (n = 3)
Method: (§4) To a PMA (phorbol 12-myristate 13-acetate, 400 ng/mL)-FBS (fetal bovine serum, 10%)-containing RPMI medium was suspended human monocyte -derived THP-1 cells (ATCC) (7×10^5 cell/mL), and the obtained suspension was dispensed into a 24-well plate (0.5 mL/well) and cultured for 3 days. After removing the medium, a FBS (fetal bovine serum, 10%)—containing RPMI1640 medium into which a test compound (1 μM) had been added was added to the 24-well plate and the plate was cultured for 24 hours. Whole RNA was extracted from the cultured cells using RNeasy Mini Kit (QIAGEN), and then the expression amounts of LXRα mRNA, ABCA1 mRNA, ABCG1 mRNA and Human acidic ribosomal protein (huPO; 36B4) mRNA as an internal standard were measured by real-time quantitative RT-PCR according to TaqMan PCR method using a TaqMan EZ RT-PCR kit (Applied Biosystems). […]
(§5) The expression amount of Human acidic ribosomal protein (huPO; 36B4) mRNA was measured using Pre-Developed TaqMan Assay Reagents Endogenous Control (Human Acidic ribosomal protein (huPO)) (Applied Biosystems), and VIC was used as a reporter dye and TAMRA was used as a quencher dye. […]

LXRα mRNA [2] = assay: Expression modulatory activity for LXRα mRNA in human monocyte-derived cells; details: THP-1 cells, test compound 1 μM, 24 hours; Not added = 100.0; Mean ± SEM (n = 3)
Method: as §4, §5

LXRα mRNA [3] = assay: Expression modulatory activity for LXRα mRNA in mouse macrophages; details: C57BL6/J mouse peritoneal macrophages, test compound 1 μM, 24 hours; Not added = 100.0; Mean ± SEM (n = 3)
Method: (§6) A C57BL6/J mouse (male, 10 weeks old) was intraperitoneally administered with 1 mL of a 5% thioglycolic acid medium (Wako Pure Chemical Industries, Ltd.). After 4 days, intraperitoneal cells were collected with phosphate-buffered saline (PBS), and macrophages were separated in a 3% BSA-containing DMEM medium as cells adhesive to a plate. After incubation of the macrophages overnight in a DMEM medium containing 10% human lipoprotein-removed serum, the medium was replaced with a DMEM medium containing a test compound (1 μM) and 10% fetal bovine serum and cultured for 24 hours.
(§7) After the medium was removed, whole RNA was extracted from the obtained macrophage using RNeasy Mini Kit (QIAGEN) and then the expression amounts of the LXRαmRNA, ABCG1mRNA and mouse acidic ribosomal protein (36B4) mRNA as an internal standard were measured by real-time quantitative RT-PCR according to TaqMan PCR method using a TaqMan EZ RT-PCR kit (Applied Biosystems). […]
(§8) Real-time quantitative PCR was carried out according to the similar manner to Experimental Example 1.
(§9) Based on the ratio of the expression amount of the LXRαmRNA and ABCG1mRNA relative to the internal standard (expression amount of mouse acidic ribosomal protein mRNA), the expression modulatory activities for the LXRα mRNA and ABCG1 mRNA of the test compound were evaluated.

[4] = test system: human monocyte-derived THP-1 cells; assay: Foaming-suppressant activity in human monocyte-derived cells (intracellular lipid content); details: for Intracellular lipid content FC (free cholesterol) / Intracellular lipid content TC (total cholesterol) / Intracellular lipid content CE (cholesteryl ester): test compound 1 μM, rabbit β-VLDL loading 2 days; for Intracellular lipid content FC (free cholesterol): Not added = 80.8 ± 1.2, Mean ± SEM (n = 3); for Intracellular lipid content TC (total cholesterol): Not added = 114.8 ± 1.8, Mean ± SEM (n = 3); for Intracellular lipid content CE (cholesteryl ester): calculated as TC minus FC, Not added = 34.0 ± 2.3, Mean ± SEM (n = 3)
Method: In a RPMI1640 medium containing a test compound (1 μM), PMA (phorbol 12-myristate 13-acetate, 400 ng/ml) and 10% fetal bovine serum was suspended human monocyte-derived THP-1 cells (purchased from Dainippon Pharmaceutical Co., Ltd.). The obtained suspension was dispensed into a 12-well plate (7.2×10^5 cells) and was cultured for 3 days. The obtained cell was further cultured in a RPMI1640 medium containing the test compound and 0.2 mM oleic acid-0.2% bovine serum albumin complex and rabbit β-VLDL (200 μg cholesterol/mL) for 2 days, and then the total lipids in the cells were extracted with a mixed solution of n-hexane/isopropanol (3:2). The amounts of the total cholesterol (TC) and free cholesterol (FC) in the extract were measured with a enzyme method [using Cholesterol E-Test Wako (trade name, Wako Pure Chemical Industries, Ltd.)], and the amount of cholesteryl ester (CE) was calculated by the difference between the two cholesterol amounts. The intracellular lipid content was then evaluated by dividing the amounts of these lipids by the amount of cell protein (measured using BCA assay kit (Pierce)). In the Table, TC represents total cholesterol, FC represents free cholesterol and CE represents cholesteryl ester.

ABCG1 mRNA [5] = assay: Expression modulatory activity for ABCG1 mRNA in mouse macrophages; details: C57BL6/J mouse peritoneal macrophages, test compound 1 μM, 24 hours; Not added = 100.0; Mean ± SEM (n = 3)
Method: as §6, §7, §8, §9

ABCA1 mRNA = assay: Expression modulatory activity for ABCA1 mRNA in human monocyte-derived cells; details: THP-1 cells, test compound 1 μM, 24 hours; Not added = 100.0; Mean ± SEM (n = 3)
Method: as §4, §5

ACAT-1 mRNA = assay: Expression modulatory activity for ACAT-1 mRNA in human monocyte-derived cells; details: THP-1 cells, test compound 1 μM, 2 days + 1 day; Not added = 100.0; Mean ± SEM (n = 3)
Method: as §1, §2
In the above mentioned method, for the measurement of the expression amount of the ACAT-1mRNA, oligo DNAs represented by
5′-[…]-3′ (SEQ ID NO: 19),
5′-[…]-3′ (SEQ ID NO: 20) and […]
as §3

Compound | Expression amount of mRNA (Relative ratio % to internal standard) CEH (CEH mRNA) | Expression amount of mRNA (Relative ratio % to internal standard) ABCG1 (ABCG1 mRNA [1]) | Expression amount of mRNA (Relative ratio % to internal standard) LXRα (LXRα mRNA [2]) | Expression amount of mRNA (Relative ratio % to internal standard) LXRα (LXRα mRNA [3]) | foaming-suppressant activity ([4]; conclusion based on the decrease in the amount of cholesteryl ester, 1 μM) | Intracellular lipid content FC (free cholesterol) [4] | Intracellular lipid content TC (total cholesterol) [4] | Intracellular lipid content CE (cholesteryl ester) [4] | Expression amount of mRNA (Relative ratio % to internal standard) ABCG1 (ABCG1 mRNA [5]) | Expression amount of mRNA (Relative ratio % to internal standard) ABCA1 (ABCA1 mRNA) | Expression amount of mRNA (Relative ratio % to internal standard) ACAT-1 (ACAT-1 mRNA)
Cc1oc(-c2ccccc2)nc1COc1ccc(CO/N=C(\CCC(=O)O)c2ccccc2)cc1 [Compound (7), E-4-[4-(5-methyl-2-phenyl-4-oxazolylmethoxy)benzyloxyimino]-4-phenylbutyric acid] | 159.4 ± 1.9% | 265.5 ± 22.0% | 160.1 ± 9.0% | 173.0 ± 9.9% | have foaming-suppressant activity | 72.0 ± 1.3 μg/mg cell protein | 95.8 ± 1.4 μg/mg cell protein | 23.7 ± 1.9 μg/mg cell protein | 159.1 ± 6.1% | 113.5 ± 5.5% | 66.1 ± 1.5%
CCc1ccc(CCOc2ccc(CC3SC(=O)NC3=O)cc2)nc1 (stereo not drawn) [Pioglitazone hydrochloride, reference compound] | 148.6 ± 9.2% | 252.0 ± 9.2% | 165.7 ± 4.6% | 145.3 ± 17.9% |  | 72.7 ± 0.4 μg/mg cell protein | 100.3 ± 0.3 μg/mg cell protein | 27.6 ± 0.5 μg/mg cell protein | 195.2 ± 23.1% | 108.2 ± 3.5% | 65.8 ± 1.9%
